# Measured values as given in patent US7034036B2, “Inhibitors of ABC drug transporters at the blood-brain barrier” (Pain Therapeutics, Inc., priority 2000, dated 2006).
# “Also recorded” adds a separate entry of the source.
# Experiments:
# mice [1] = assay: Tail flick anti-nociception, naltrexone given with morphine from day 1 (Groups C, D, combined analysis); type: in vivo; set-up: Enhancement of Latency (tail flick) / Enhancement of Latency by Naltrexone (tail flick): unit not given here; settings: Group 1: morphine 3 mg/kg only
# Protocol: In a third series of experiments, 40 male mice were randomized into 5 groups of eight. All mice were administered single 3 mg/kg morphine daily (b.i.d.), beginning on Day 1.
# In a final series of experiments, 40 female mice were randomized into 5 groups of eight. All mice were administered single 3 mg/kg morphine daily (b.i.d.), beginning on Day 1.
# mice [2] = assay: Tail flick anti-nociception, naltrexone begun at day 6 in mice dosed daily with morphine (Groups A, B); type: in vivo; settings: for Adaptation to repeated dosing (tail flick latency, words): Group 1, morphine 3 mg/kg daily alone
# Protocol: 40 male mice were randomized into 5 groups of eight. All mice were administered single 3 mg/kg morphine daily (b.i.d.), beginning on Day 1.
# In a second series of experiments, 40 female mice were randomized into 5 groups of eight. All mice were administered single 3 mg/kg morphine daily (b.i.d.), beginning on Day 1.
# 3 mg/kg of morphine was administered as a single bolus dose to each mouse on group 1 on a daily basis. Mice in Group 2 were also administered 3 mg/kg morphine daily.
# mice [3] = assay: Tolerance to oxycodone in mice, parallel experiments; type: in vivo
# PGP1a [4] = biological target: PGP1a (Homo sapiens, UniProt P08183); assay: Biological activity of exemplary compounds (Activity 1 high affinity site, Activity 2 low affinity site); settings: for Activity 2: high capacity, low affinity binding site; for Activity 1: low capacity, high affinity binding site
# Chain of PGP1a (Homo sapiens, UniProt P08183) (P08183 whole entry): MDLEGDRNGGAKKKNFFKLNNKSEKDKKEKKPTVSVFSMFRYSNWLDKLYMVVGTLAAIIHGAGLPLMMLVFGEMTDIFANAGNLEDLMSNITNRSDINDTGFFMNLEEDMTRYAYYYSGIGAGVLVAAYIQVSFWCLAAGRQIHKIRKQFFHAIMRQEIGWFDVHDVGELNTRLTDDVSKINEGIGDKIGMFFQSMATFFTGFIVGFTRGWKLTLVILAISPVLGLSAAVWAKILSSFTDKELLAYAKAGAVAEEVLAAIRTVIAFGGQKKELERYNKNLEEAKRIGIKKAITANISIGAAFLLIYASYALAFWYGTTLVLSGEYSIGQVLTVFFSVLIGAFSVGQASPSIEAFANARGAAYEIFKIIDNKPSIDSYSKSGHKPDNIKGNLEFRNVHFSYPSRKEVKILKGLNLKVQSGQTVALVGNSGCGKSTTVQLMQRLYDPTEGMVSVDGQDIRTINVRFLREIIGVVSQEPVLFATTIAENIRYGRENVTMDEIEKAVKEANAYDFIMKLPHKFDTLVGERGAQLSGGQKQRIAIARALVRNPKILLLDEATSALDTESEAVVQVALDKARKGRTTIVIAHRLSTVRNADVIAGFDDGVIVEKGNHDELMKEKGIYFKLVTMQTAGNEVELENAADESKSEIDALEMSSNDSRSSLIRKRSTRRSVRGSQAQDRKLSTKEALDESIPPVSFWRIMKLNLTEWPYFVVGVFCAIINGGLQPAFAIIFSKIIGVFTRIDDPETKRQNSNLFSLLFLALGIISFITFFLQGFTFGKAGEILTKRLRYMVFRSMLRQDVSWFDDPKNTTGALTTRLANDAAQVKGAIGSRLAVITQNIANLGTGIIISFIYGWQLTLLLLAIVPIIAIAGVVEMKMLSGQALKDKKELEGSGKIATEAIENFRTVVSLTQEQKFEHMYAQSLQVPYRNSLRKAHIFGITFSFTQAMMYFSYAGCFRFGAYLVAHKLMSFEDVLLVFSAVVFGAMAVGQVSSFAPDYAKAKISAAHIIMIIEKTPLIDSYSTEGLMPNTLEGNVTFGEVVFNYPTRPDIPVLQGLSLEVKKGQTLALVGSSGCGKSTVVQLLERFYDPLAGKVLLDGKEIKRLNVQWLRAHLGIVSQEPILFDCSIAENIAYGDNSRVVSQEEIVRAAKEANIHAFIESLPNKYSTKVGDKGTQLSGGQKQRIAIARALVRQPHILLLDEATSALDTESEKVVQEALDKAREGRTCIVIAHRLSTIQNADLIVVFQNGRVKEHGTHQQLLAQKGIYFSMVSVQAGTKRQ
# PGP1a [5] = assay: Vanadate-sensitive PGP ATPase activity in PGP membranes; type: biochemical; settings: for Inhibition of the ATPase associated with PGP1a: semi-quantitative assay
# Protocol: The test substances were incubated in the membranes and supplemented with MgATP, with and without sodium orthovanadate present. Orthovanadate inhibits PGP by trapping MgADP in the nucleotide binding site. Thus, the ATPase activity measured in the presence of orthovanadate represents non-PGP ATPase activity and was subtracted from the activity generated without orthovanadate to yield vanadate-sensitive ATPase activity.
# ATPase assays were conducted in 96-well microtiter plates. A 0.06 ml reaction mixture containing 40 μg PGP membranes, test substance, and 4 mM MgATP, in buffer containing 50 mM Tris-MES, 2 mM EGTA, 50 mM KCl, 2 mM dithiothreitol, and 5 mM sodium azide, plus organic solvent was incubated at 37° C. for 20 minutes. […] Identical reaction mixtures containing 100 μM sodium orthovanadate were assayed in parallel. The reactions were stopped by the addition of 30 μl of 10% SDS+Antifoam A. The incubations were followed with addition of 200 μl of 35 mM Ammonium Molybdate in 15 mM Zinc Acetate:10% Ascorbic Acid (1:4) and incubated for an additional 20 minutes at 37° C. Additionally, 0.06 ml aliquots of potassium phosphate standards prepared in the buffer described above, were incubated in the plates containing the test and control substances, with SDS and detection reagent added. The liberation of inorganic phosphate was detected by its absorbance at 800 nm and quantitated by comparing the absorbance to a phosphate standard curve. The concentration dependence of the PGP was analyzed for evidence of saturation of PGP-ATPase activity, and apparent kinetic parameters were calculated by non-linear regression.
# human PGP = human PGP (Homo sapiens, UniProt P08183); assay: Inhibition of PGP-mediated [3H]-digoxin transport in LLC-PK1 cell monolayers expressing human PGP cDNA (15B-J); settings: for % Inhibition of Digoxin Transport: 5 μM [3H]-digoxin, 90 min
# Chain of human PGP (P08183 whole entry): as above
# [6] = male mice, 0.1 mg/kg oxycodone plus 1 ng/kg naltrexone, 1 ng/kg nalmefene or 1 pg/kg nor-BNI
smiles,measurement,setting,value
CN1CC[C@]23c4c5ccc(O)c4O[C@H]2[C@@H](O)C=C[C@H]3[C@H]1C5 [morphine],Enhancement of Latency (tail flick),"mice [1]; Table 15, combined analysis (title prints Female Mice), Day 1",7.4
same,Enhancement of Latency (tail flick),"mice [1]; Table 15, combined analysis (title prints Female Mice), Day 3",3.0
same,Enhancement of Latency (tail flick),"mice [1]; Table 15, combined analysis (title prints Female Mice), Day 5",−1.2
same,Enhancement of Latency (tail flick),"mice [1]; Table 15, combined analysis (title prints Female Mice), Day 8",−3.7
same,Enhancement of Latency (tail flick),"mice [1]; Table 15, combined analysis (title prints Female Mice), Day 10",−3.3
same,Enhancement of Latency (tail flick),"mice [1]; female mice, Day 1",5.4
same,Enhancement of Latency (tail flick),"mice [1]; female mice, Day 3",−0.1
same,Enhancement of Latency (tail flick),"mice [1]; female mice, Day 5",−4.1
same,Enhancement of Latency (tail flick),"mice [1]; female mice, Day 7",−5.0
same,Enhancement of Latency (tail flick),"mice [1]; female mice, Day 10",−3.3
same,Enhancement of Latency (tail flick),"mice [1]; female mice, Day 11, single bolus 10 μg/kg naltrexone to every mouse",−5.2
same,Enhancement of Latency (tail flick),"mice [1]; male mice, Day 1",9.3
same,Enhancement of Latency (tail flick),"mice [1]; male mice, Day 3",6.2
same,Enhancement of Latency (tail flick),"mice [1]; male mice, Day 5",1.6
same,Enhancement of Latency (tail flick),"mice [1]; male mice, Day 8",−2.3
same,Enhancement of Latency (tail flick),"mice [1]; male mice, Day 10",−3.3
same,Enhancement of Latency (tail flick),"mice [1]; male mice, Day 12, single bolus 10 μg/kg naltrexone to every mouse",−4.3
same,Tolerance,"mice [2]; 3 mg/kg daily, by Day 5",showed distinct tolerance
same,"Adaptation to repeated dosing (tail flick latency, words)","mice [2]; female mice, especially from day five onwards",show an adaptation to morphine
same,"Adaptation to repeated dosing (tail flick latency, words)",mice [2]; male mice,showed adaptation
"Oc1ccc2c3c1O[C@H]1c4[nH]c5c(c4C[C@@]4(O)[C@@H](C2)N(CC2CC2)CC[C@]314)C[C@@]1(O)[C@H]2Cc3ccc(O)c4c3[C@@]1(CCN2CC1CC1)[C@H]5O4 [nor-BNI, nor-binaltorphimine]",Development of tolerance to oxycodone,"mice [3]; female mice, 1 or 5 mg/kg oxycodone with 1 pg/kg, 1 ng/kg or 1 μg/kg naltrexone or 1 pg/kg nor-BNI",None of the mice developed tolerance
same,Development of tolerance to oxycodone,mice [3]; [6],did not develop tolerance
"C=CCN1CC[C@]23c4c5ccc(O)c4O[C@H]2C(=O)CC[C@@]3(O)[C@H]1C5 [Naloxone, naloxone]",Activity 2,PGP1a [4],30 µM
same,Activity 1,PGP1a [4],1.0 nM
same,Vanadate-sensitive ATPase Activity,PGP1a [5]; 1 μM,0.4 nmol/mg/min
same,Vanadate-sensitive ATPase Activity,PGP1a [5]; 3 μM,1.7 nmol/mg/min
same,Vanadate-sensitive ATPase Activity,PGP1a [5]; 10 μM,2 nmol/mg/min
same,Vanadate-sensitive ATPase Activity,PGP1a [5]; 30 μM,1.9 nmol/mg/min
same,Vanadate-sensitive ATPase Activity,PGP1a [5]; 100 μM,1.8 nmol/mg/min
same,Inhibition of the ATPase associated with PGP1a,PGP1a [5],shown to inhibit; also recorded: only weakly inhibited
same,Ketoconazole Normalized % Inhibition of Digoxin Transport,"human PGP; 0.0001 μM nominal, normalized to 25 μM ketoconazole",6.2%
same,Ketoconazole Normalized % Inhibition of Digoxin Transport,"human PGP; 0.0003 μM nominal, normalized to 25 μM ketoconazole",8.4%
same,Ketoconazole Normalized % Inhibition of Digoxin Transport,"human PGP; 0.001 μM nominal, normalized to 25 μM ketoconazole",10%
same,Ketoconazole Normalized % Inhibition of Digoxin Transport,"human PGP; 0.01 μM nominal, normalized to 25 μM ketoconazole",−4.5%
same,Ketoconazole Normalized % Inhibition of Digoxin Transport,"human PGP; 0.03 μM nominal, normalized to 25 μM ketoconazole",5.7%
same,Ketoconazole Normalized % Inhibition of Digoxin Transport,"human PGP; 0.1 μM nominal, normalized to 25 μM ketoconazole",−2.7%
same,Ketoconazole Normalized % Inhibition of Digoxin Transport,"human PGP; 1 μM nominal, normalized to 25 μM ketoconazole",7.8%
same,Inhibition of digoxin transport,human PGP; at the 30 and 100 μM concentrations,exhibited inhibitory behavior
same,Inhibition of digoxin transport,"human PGP; concentrations below 30 μM, not concentration-dependent",slightly inhibited
same,Ketoconazole Normalized % Inhibition of Digoxin Transport,human PGP; nominal 0.03 μM as printed in the fourth line (measured […]),5.7%
"Oc1ccc2c3c1O[C@H]1[C@H](O)CC[C@@]4(O)[C@@H](C2)N(CC2CC2)CC[C@]314 [6-β-Naltrexol, 6-β-naltrexol]",Activity 2,PGP1a [4],100 µM
same,Activity 1,PGP1a [4],0.1 nM
"C=C1CC[C@@]2(O)[C@H]3Cc4ccc(O)c5c4[C@@]2(CCN3CC2CC2)[C@H]1O5 [Nalmefene, nalmefene]",Activity 2,PGP1a [4],100 µM
same,Activity 1,PGP1a [4],0.3 nM
same,Development of tolerance to oxycodone,mice [3]; [6],did not develop tolerance
same,Vanadate-sensitive ATPase Activity,PGP1a [5]; 30 μM,2.3 nmol/mg/min
same,Vanadate-sensitive ATPase Activity,PGP1a [5]; 100 μM,3.2 nmol/mg/min
same,Inhibition of the ATPase associated with PGP1a,PGP1a [5],shown to inhibit
same,% Inhibition of Digoxin Transport,human PGP; 0.0001 μM test substance,5.2%
same,% Inhibition of Digoxin Transport,human PGP; 0.0003 μM test substance,7.2%
same,% Inhibition of Digoxin Transport,human PGP; 0.001 μM test substance,2.8%
same,% Inhibition of Digoxin Transport,human PGP; 0.003 μM test substance,5.1%
same,% Inhibition of Digoxin Transport,human PGP; 0.01 μM test substance,3.9%
same,% Inhibition of Digoxin Transport,human PGP; 0.03 μM test substance,−7.2%
same,% Inhibition of Digoxin Transport,human PGP; 0.1 μM test substance,−0.3%
same,% Inhibition of Digoxin Transport,human PGP; 0.3 μM test substance,−5.6%
same,% Inhibition of Digoxin Transport,human PGP; 1 μM test substance,−2.6%
same,Inhibition of digoxin transport,human PGP; increasing concentration between 3 and 100 μM,increasingly inhibited
